Key:
Format in all cases: in vivo
[1] = test system: nightshade (eastern black nightshade, Solanum ptycanthum); assay: Test B pre-/postemergence plant response; conditions: Preemergence; for Nightshade plant response rating: 125 g ai/ha
How it was run: (§1)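 Seeds were sown in loam soil/sand blend and treated preemergence with compound in non-phytotoxic solvent mixture containing surfactant; postemergence sprays, same formulation, went onto plants 2 to 18 cm (1- to 4-leaf stage) in peat-based planting medium. Greenhouse 13 to 15 days, then visual rating versus untreated controls, 0 (no effect) to 100 (complete control).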

[2] = test system: galium (catchweed bedstraw, Galium aparine); assay: Test B pre-/postemergence plant response; conditions: Preemergence; for Galium plant response rating: 125 g ai/ha
How it was run: as §1

[3] = test system: sunflower (common oilseed sunflower, Helianthus annuus); assay: Test B pre-/postemergence plant response; conditions: Preemergence; for Sunflower plant response rating: 125 g ai/ha
How it was run: as §1

[4] = test system: goosegrass (Eleusine indica); assay: Test B pre-/postemergence plant response; conditions: Preemergence, 62 g ai/ha; scale 0 to 100, 0 no effect, 100 complete control
[5] = test system: canarygrass (Phalaris minor); assay: Test B postemergence plant response; conditions: Postemergence; for Canarygrass plant response rating: 250 g ai/ha, scale 0 to 100
How it was run: (§2)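 Plants at the 1- to 4-leaf stage (2 to 18 cm tall), grown in pots of peat moss/vermiculite medium with wetting agent and starter nutrients, received postemergence applications of test chemicals. After 13 to 15 days in a greenhouse, injury was rated visually against untreated controls on a 0 (no effect) to 100 (complete control) scale.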

[6] = test system: chickweed (Stellaria media); assay: Test B postemergence plant response; conditions: Postemergence; for Chickweed plant response rating: 250 g ai/ha, scale 0 to 100
How it was run: as §2

[7] = test system: windgrass (Apera spica-venti); assay: Test B postemergence plant response; conditions: Postemergence, scale 0 (no effect) to 100 (complete control)
How it was run: as §2

[8] = test system: winter barley (Hordeum vulgare); assay: Test B postemergence plant response; conditions: Postemergence; for Barley plant response rating: 250 g ai/ha, scale 0 to 100
How it was run: as §2

[9] = test system: velvetleaf (Abutilon theophrasti); assay: Test A pre-/postemergence plant response
How it was run: (§3)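 Seeds planted in loam soil/sand blend; test chemicals in non-phytotoxic solvent mixture with surfactant applied as directed soil spray preemergence and, concurrently, postemergence to plants 2–10 cm tall at one- to two-leaf stage. Greenhouse ~10 days; visual injury vs untreated controls, 0 (no effect) to 100 (complete control).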

[10] = test system: giant foxtail (Setaria faberii); assay: Test A pre-/postemergence plant response
How it was run: as §3

[11] = test system: wheat (Triticum aestivum); assay: Test A pre-/postemergence plant response
How it was run: as §3

[12] = test system: large crabgrass (Digitaria sanguinalis); assay: Test A pre-/postemergence plant response
How it was run: as §3

corn (Zea mays) = assay: Test A pre-/postemergence plant response
How it was run: as §3

[13] = test system: barnyardgrass (Echinochloa crus-galli); assay: Test A pre-/postemergence plant response
How it was run: as §3

[14] = 31 g ai/ha, scale 0 to 100 (0 no effect, 100 complete control)
[15] = 62 g ai/ha, scale 0 to 100, 0 no effect, 100 complete control
[16] = 62 g ai/ha, scale 0 (no effect) to 100 (complete control), 13 to 15 days
[17] = 125 g ai/ha, visual rating after 13 to 15 days, scale 0 (no effect) to 100 (complete control)
[18] = 125 g ai/ha, visual rating after 13 to 15 days
[19] = Postemergence, 125 g ai/ha, visual injury, 0 to 100 scale (0 no effect, 100 complete control), approx. ten days
[20] = Postemergence, 500 g ai/ha, 0 to 100 scale, 0 = no effect, 100 = complete control, approx. ten days
[21] = Preemergence, 125 g ai/ha, 0 to 100 scale, 0 = no effect, 100 = complete control
[22] = Preemergence, 500 g ai/ha, visual injury, 0 to 100 scale (0 no effect, 100 complete control), approx. ten days

O=C1CCCC(O)=C1C(=O)c1cnc(-c2ccccc2)n(-c2ccccc2Br)c1=O [Compound 37]
45: Sunflower plant response rating ([3]; 0 to 100 scale)
100: Plant response rating, Galium ([2]; 250 g ai/ha, 0 to 100 scale) | Chickweed plant response rating [6] | Velvetleaf plant response rating [9, 19] | Plant response rating, Velvetleaf [9, 20] | Plant response rating, Crabgrass, Large [12, 20]
5: Plant response rating, Canarygrass [5, 16]
90: Plant response rating, Sunflower ([3]; 250 g ai/ha, 0 to 100 scale) | Plant response rating, Velvetleaf [9, 22] | Plant response rating, Foxtail, Giant [10, 20] | Plant response rating, Barnyardgrass [13, 20]
10: Plant response rating, Galium [2, 15] | Plant response rating, Canarygrass [5, 17] | Plant response rating, Foxtail, Giant [10, 21] | Plant response rating, Crabgrass, Large [12, 21]
85: Plant response rating, Nightshade ([1]; 250 g ai/ha, 0 to 100 scale) | Plant response rating, Chickweed [6, 17]
30: Galium plant response rating ([2]; 0 to 100 scale) | Canarygrass plant response rating [5] | Plant response rating, Windgrass ([7]; 62 g ai/ha, 13 to 15 days) | Plant response rating, Barnyardgrass [13, 22]
40: Plant response rating, Nightshade [1, 15] | Plant response rating, Corn (corn (Zea mays); [20])
50: Plant response rating, Windgrass [7, 18] | Plant response rating, Velvetleaf [9, 21] | Plant response rating, Foxtail, Giant [10, 22] | Plant response rating, Crabgrass, Large [12, 22] | Barnyardgrass plant response rating [13, 19]
0: Plant response rating, Nightshade [1, 14] | Plant response rating, Galium [2, 14] | Plant response rating, Sunflower [3, 14] | Plant response rating, Goosegrass [4] | Plant response rating, Canarygrass [5, 14] | Plant response rating, Barley [8, 14] | Plant response rating, Barley [8, 16] | Plant response rating, Barley [8, 17] | Barley plant response rating [8] | Wheat plant response rating [11, 19] | Plant response rating, Wheat [11, 20] | Plant response rating, Wheat [11, 21] | Plant response rating, Wheat [11, 22] | Corn plant response rating (corn (Zea mays); [19]) | Plant response rating, Corn (corn (Zea mays); [21]) | Plant response rating, Corn (corn (Zea mays); [22]) | Plant response rating, Barnyardgrass [13, 21]
70: Foxtail, Giant plant response rating [10, 19] | Crabgrass, Large plant response rating [12, 19]
80: Nightshade plant response rating ([1]; 0 to 100 scale) | Plant response rating, Chickweed [6, 14] | Plant response rating, Chickweed [6, 16]

Cc1ccc(-n2c(-c3cccc(Cl)c3)ncc(C(=O)C3=C(O)CCCC3=O)c2=O)cc1 [Compound 39]
10: Barley plant response rating [8] | Plant response rating, Barnyardgrass [13, 21]
85: Plant response rating, Galium ([2]; 250 g ai/ha, 0 to 100 scale) | Galium plant response rating ([2]; 0 to 100 scale)
90: Plant response rating, Velvetleaf [9, 22] | Plant response rating, Foxtail, Giant [10, 20] | Plant response rating, Foxtail, Giant [10, 22] | Plant response rating, Crabgrass, Large [12, 20] | Plant response rating, Crabgrass, Large [12, 22] | Plant response rating, Barnyardgrass [13, 20] | Plant response rating, Barnyardgrass [13, 22]
40: Plant response rating, Corn (corn (Zea mays); [20])
60: Plant response rating, Crabgrass, Large [12, 21] | Barnyardgrass plant response rating [13, 19]
0: Plant response rating, Sunflower [3, 14] | Plant response rating, Canarygrass [5, 14] | Plant response rating, Canarygrass [5, 16] | Plant response rating, Canarygrass [5, 17] | Plant response rating, Windgrass ([7]; 62 g ai/ha, 13 to 15 days) | Plant response rating, Barley [8, 14] | Plant response rating, Barley [8, 16] | Plant response rating, Barley [8, 17] | Wheat plant response rating [11, 19] | Plant response rating, Wheat [11, 20] | Plant response rating, Wheat [11, 21] | Plant response rating, Wheat [11, 22] | Corn plant response rating (corn (Zea mays); [19]) | Plant response rating, Corn (corn (Zea mays); [21]) | Plant response rating, Corn (corn (Zea mays); [22])
80: Plant response rating, Galium [2, 15] | Foxtail, Giant plant response rating [10, 19] | Crabgrass, Large plant response rating [12, 19]
100: Plant response rating, Nightshade ([1]; 250 g ai/ha, 0 to 100 scale) | Plant response rating, Nightshade [1, 15] | Nightshade plant response rating ([1]; 0 to 100 scale) | Plant response rating, Goosegrass [4] | Plant response rating, Chickweed [6, 16] | Plant response rating, Chickweed [6, 17] | Chickweed plant response rating [6] | Velvetleaf plant response rating [9, 19] | Plant response rating, Velvetleaf [9, 20]
25: Sunflower plant response rating ([3]; 0 to 100 scale)
98: Plant response rating, Chickweed [6, 14]
5: Plant response rating, Windgrass [7, 18]
65: Plant response rating, Sunflower ([3]; 250 g ai/ha, 0 to 100 scale)
50: Plant response rating, Nightshade [1, 14] | Plant response rating, Foxtail, Giant [10, 21]
70: Plant response rating, Galium [2, 14] | Plant response rating, Velvetleaf [9, 21]
20: Canarygrass plant response rating [5]

Cc1cccc(-n2c(-c3cccc(Cl)c3)ncc(C(=O)C3=C(O)CCCC3=O)c2=O)c1 [Compound 45]
5: Plant response rating, Barley [8, 14] | Plant response rating, Barley [8, 16] | Plant response rating, Barley [8, 17] | Barley plant response rating [8]
20: Plant response rating, Wheat [11, 22] | Plant response rating, Corn (corn (Zea mays); [20])
80: Plant response rating, Foxtail, Giant [10, 22] | Plant response rating, Barnyardgrass [13, 22]
40: Plant response rating, Galium [2, 14] | Plant response rating, Galium [2, 15] | Plant response rating, Wheat [11, 20] | Plant response rating, Barnyardgrass [13, 21]
30: Plant response rating, Canarygrass [5, 17] | Canarygrass plant response rating [5]
90: Plant response rating, Foxtail, Giant [10, 20] | Plant response rating, Crabgrass, Large [12, 20] | Barnyardgrass plant response rating [13, 19]
98: Plant response rating, Nightshade [1, 14] | Plant response rating, Chickweed [6, 17]
10: Sunflower plant response rating ([3]; 0 to 100 scale) | Plant response rating, Canarygrass [5, 14] | Plant response rating, Canarygrass [5, 16]
75: Plant response rating, Sunflower ([3]; 250 g ai/ha, 0 to 100 scale) | Plant response rating, Chickweed [6, 14]
60: Plant response rating, Windgrass ([7]; 62 g ai/ha, 13 to 15 days) | Plant response rating, Velvetleaf [9, 21] | Crabgrass, Large plant response rating [12, 19]
100: Plant response rating, Nightshade ([1]; 250 g ai/ha, 0 to 100 scale) | Plant response rating, Nightshade [1, 15] | Nightshade plant response rating ([1]; 0 to 100 scale) | Plant response rating, Goosegrass [4] | Chickweed plant response rating [6] | Velvetleaf plant response rating [9, 19] | Plant response rating, Velvetleaf [9, 20] | Plant response rating, Velvetleaf [9, 22] | Plant response rating, Crabgrass, Large [12, 22] | Plant response rating, Barnyardgrass [13, 20]
0: Plant response rating, Sunflower [3, 14] | Plant response rating, Foxtail, Giant [10, 21] | Wheat plant response rating [11, 19] | Plant response rating, Wheat [11, 21] | Corn plant response rating (corn (Zea mays); [19]) | Plant response rating, Corn (corn (Zea mays); [21]) | Plant response rating, Corn (corn (Zea mays); [22])
70: Plant response rating, Windgrass [7, 18]
50: Galium plant response rating ([2]; 0 to 100 scale) | Foxtail, Giant plant response rating [10, 19] | Plant response rating, Crabgrass, Large [12, 21]
85: Plant response rating, Galium ([2]; 250 g ai/ha, 0 to 100 scale) | Plant response rating, Chickweed [6, 16]

Cc1cc(F)ccc1-n1c(-c2ccccc2)ncc(C(=O)C2=C(O)CCCC2=O)c1=O [Compound 48]
95: Plant response rating, Chickweed [6, 17]
100: Plant response rating, Nightshade ([1]; 250 g ai/ha, 0 to 100 scale) | Plant response rating, Nightshade [1, 14] | Plant response rating, Nightshade [1, 15] | Nightshade plant response rating ([1]; 0 to 100 scale) | Plant response rating, Goosegrass [4] | Chickweed plant response rating [6] | Velvetleaf plant response rating [9, 19] | Plant response rating, Velvetleaf [9, 20] | Plant response rating, Velvetleaf [9, 22] | Plant response rating, Foxtail, Giant [10, 20] | Plant response rating, Crabgrass, Large [12, 20] | Plant response rating, Crabgrass, Large [12, 22] | Plant response rating, Barnyardgrass [13, 22]
90: Plant response rating, Chickweed [6, 16] | Plant response rating, Windgrass [7, 18] | Foxtail, Giant plant response rating [10, 19] | Plant response rating, Foxtail, Giant [10, 22] | Crabgrass, Large plant response rating [12, 19] | Plant response rating, Crabgrass, Large [12, 21] | Plant response rating, Barnyardgrass [13, 20]
45: Plant response rating, Canarygrass [5, 17] | Canarygrass plant response rating [5]
80: Plant response rating, Sunflower ([3]; 250 g ai/ha, 0 to 100 scale) | Sunflower plant response rating ([3]; 0 to 100 scale) | Plant response rating, Windgrass ([7]; 62 g ai/ha, 13 to 15 days) | Plant response rating, Velvetleaf [9, 21] | Barnyardgrass plant response rating [13, 19]
5: Plant response rating, Barley [8, 14] | Plant response rating, Barley [8, 16]
20: Plant response rating, Wheat [11, 20] | Plant response rating, Barnyardgrass [13, 21]
30: Plant response rating, Canarygrass [5, 14] | Plant response rating, Canarygrass [5, 16] | Plant response rating, Corn (corn (Zea mays); [20])
70: Plant response rating, Galium ([2]; 250 g ai/ha, 0 to 100 scale) | Plant response rating, Foxtail, Giant [10, 21]
0: Plant response rating, Galium [2, 14] | Plant response rating, Sunflower [3, 14] | Wheat plant response rating [11, 19] | Plant response rating, Wheat [11, 21] | Plant response rating, Wheat [11, 22] | Corn plant response rating (corn (Zea mays); [19]) | Plant response rating, Corn (corn (Zea mays); [21]) | Plant response rating, Corn (corn (Zea mays); [22])
10: Plant response rating, Barley [8, 17] | Barley plant response rating [8]
85: Plant response rating, Chickweed [6, 14]
60: Plant response rating, Galium [2, 15] | Galium plant response rating ([2]; 0 to 100 scale)

Source: patent US8952024B2, “Herbicidal pyrimidone derivatives” (E I du Pont de Nemours and Company, priority 2009, dated 2015)
